The record followed here is patent US9630922B2, “3-spiro-7-hydroxamic acid tetralins as HDAC inhibitors” (Forma Therapeutics, Inc., priority 2015, dated 2017).

The target in the test is T1, HDAC6 (Homo sapiens, UniProt Q9UBN7).
T1 construct: Full length human recombinant HDAC6 protein was expressed in baculoviral system; made in house; host or cells: baculoviral system
T1 sequence (Q9UBN7 1-1215): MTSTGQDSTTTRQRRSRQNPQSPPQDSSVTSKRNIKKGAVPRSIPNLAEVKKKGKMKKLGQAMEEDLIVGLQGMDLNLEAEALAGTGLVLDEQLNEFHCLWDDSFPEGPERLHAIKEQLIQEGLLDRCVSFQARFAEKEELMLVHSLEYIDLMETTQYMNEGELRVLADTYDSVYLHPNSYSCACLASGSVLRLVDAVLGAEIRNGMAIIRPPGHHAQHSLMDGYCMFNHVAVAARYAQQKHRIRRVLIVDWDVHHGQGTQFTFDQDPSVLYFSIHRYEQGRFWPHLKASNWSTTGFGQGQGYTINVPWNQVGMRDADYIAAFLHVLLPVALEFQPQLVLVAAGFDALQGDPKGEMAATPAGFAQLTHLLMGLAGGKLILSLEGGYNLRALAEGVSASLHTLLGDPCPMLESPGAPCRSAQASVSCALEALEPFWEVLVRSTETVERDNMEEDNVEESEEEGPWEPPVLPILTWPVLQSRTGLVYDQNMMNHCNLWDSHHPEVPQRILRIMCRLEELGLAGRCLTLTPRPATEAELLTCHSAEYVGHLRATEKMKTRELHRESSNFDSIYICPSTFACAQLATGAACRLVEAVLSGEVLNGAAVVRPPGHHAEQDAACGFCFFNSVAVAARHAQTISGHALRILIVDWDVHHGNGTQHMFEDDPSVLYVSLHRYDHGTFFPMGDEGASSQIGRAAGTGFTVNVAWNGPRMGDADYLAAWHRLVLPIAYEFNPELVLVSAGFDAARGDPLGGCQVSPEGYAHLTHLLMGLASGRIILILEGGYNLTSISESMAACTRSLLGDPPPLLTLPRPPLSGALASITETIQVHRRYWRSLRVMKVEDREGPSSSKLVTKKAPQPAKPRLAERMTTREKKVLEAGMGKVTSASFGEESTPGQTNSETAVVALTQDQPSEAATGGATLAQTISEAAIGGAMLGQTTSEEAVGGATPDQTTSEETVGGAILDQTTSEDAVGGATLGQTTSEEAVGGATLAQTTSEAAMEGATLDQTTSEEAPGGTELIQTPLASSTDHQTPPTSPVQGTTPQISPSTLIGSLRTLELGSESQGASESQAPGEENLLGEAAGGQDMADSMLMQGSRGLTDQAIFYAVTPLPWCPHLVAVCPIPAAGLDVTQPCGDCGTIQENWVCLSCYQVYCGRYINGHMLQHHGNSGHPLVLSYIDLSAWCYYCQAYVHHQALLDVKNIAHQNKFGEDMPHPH
As to the kind of experiment: In vitro Histone Deacetylase Assay (enzymatic HDAC6 electrophoretic mobility shift assay). The class given is biochemical. The following applies: full length human recombinant HDAC6, 1 nM enzyme, 2 μM peptide substrate RHKK(Ac)-NH2, 25° C.; read-out: HDAC6 activity range. Here is the method:
The enzymatic HDAC6 assay was performed using electrophoretic mobility shift assay. Full length human recombinant HDAC6 protein was expressed in baculoviral system and purified by affinity chromatography. The enzymatic reactions were assembled in 384 well plates in a total volume of 25 μL in a reaction buffer composing: 100 mM HEPES, pH7.5, 25 mM KCl, 0.1% bovine serum albumin, 0.01% Triton X-100, 1% DMSO (from compounds) 2 μM of the fluorescently labeled peptide substrate and enzyme. The enzyme was added at a final concentration of 1 nM. The peptide substrate RHKK(Ac)—NH2 was used. The compounds were tested at 12 concentrations spaced by 3× dilution intervals. Negative control samples (0%-inhibition in the absence of inhibitor) and positive control samples (100%-inhibition) were assembled in replicates of four in each assay plate. The reactions were incubated at 25° C. and quenched by the addition of 45 μL of termination buffer (100 mM HEPES, pH 7.5, 0.01% Triton X-100, 0.05% SDS).
The terminated assay plates were analyzed on LabChip® 3000 microfluidic electrophoresis instrument (Perkin Elmer/Caliper Life Sciences). The fluorescence intensity of the electrophoretically separated de-acetylated product and substrate peptide was measured. Activity in each sample was determined as the product to sum ratio (PSR): P/(S+P), where P is the peak height of the product peptide and S is the peak height of the substrate peptide. Percent inhibition (Pinh) is determined using the following equation:
Pinh=(PSR0%−PSRinh)/(PSR0%−PSR100%)*100, where PSRinh is the product sum ratio in the presence of inhibitor, PSR0% is the average product sum ration in the absence of inhibitor and PSR100% is the average product sum ratio in 100%-inhibition control samples. The IC50 values of inhibitors were determined by fitting the %-inhibition curves with 4 parameter dose-response model using XLfit 4 software.
As set forth in Table-31, below, IC50 values are defined as follows: IC50≦0.1 μM (+++); IC50>0.1 μM and ≦0.5 μM (++); IC50>0.5 μM (+).
Background: A gel shift assay detects complexes by their altered migration in electrophoresis.
For `O=C(NO)c1ccc2c(c1)CC[C@]1(CCN(C3CCC3)C1=O)C2` (single isomer, unassigned) [Compound I-171], the IC50 is not above 100 nM. In the case of `O=C(NO)c1ccc2c(c1)CC[C@@]1(CCN(C3CCC3)C1=O)C2` (single isomer, unassigned) [Compound I-172] it was not above 100 nM; in that of `CN1CCC[C@@]2(CCc3cc(C(=O)NO)ccc3C2)C1=O` (single isomer, unassigned) [Compound I-179], not above 100 nM.

With `CN1CCC[C@]2(CCc3cc(C(=O)NO)ccc3C2)C1=O` (single isomer, unassigned) [Compound I-180], the IC50 was not above 100 nM. In the case of `O=C(NO)c1ccc2c(c1)CC[C@@]1(CCCN(c3ccccc3)C1=O)C2` (single isomer, unassigned) [Compound I-181], the IC50 is not above 100 nM. For `O=C(NO)c1ccc2c(c1)CC[C@]1(CCCN(c3ccccc3)C1=O)C2` (single isomer, unassigned) [Compound I-182], the IC50 is not above 100 nM. To `CCN1CCCC2(CCc3cc(C(=O)NO)ccc3C2)C1=O` (single isomer, unassigned) [Compound I-184] belongs not above 100 nM. With `O=C(NO)c1ccc2c(c1)CC[C@@]1(CCCN(CC3CCC3)C1=O)C2` (single isomer, unassigned) [Compound I-185], the IC50 is not above 100 nM. For the compound `O=C(NO)c1ccc2c(c1)CCC1(CCCN(CC3CCC3)C1=O)C2` (single isomer, unassigned) [Compound I-186], the IC50 was not above 100 nM. Consider `COCCCN1CCCC2(CCc3cc(C(=O)NO)ccc3C2)C1=O` (single isomer, unassigned) [Compound I-187], for which the IC50 is not above 100 nM.

For the compound `COCCCN1CCCC2(CCc3cc(C(=O)NO)ccc3C2)C1=O` (single isomer, unassigned) [Compound I-188], the IC50 is not above 100 nM. In the case of `CC(C)CN1CCCC2(CCc3cc(C(=O)NO)ccc3C2)C1=O` (single isomer, unassigned) [Compound I-189] it was not above 100 nM; in that of `CC(C)CN1CCCC2(CCc3cc(C(=O)NO)ccc3C2)C1=O` (single isomer, unassigned) [Compound I-190], not above 100 nM; in that of `CC(C)N1CCCC2(CCc3cc(C(=O)NO)ccc3C2)C1=O` (single isomer, unassigned) [Compound I-191], not above 100 nM. In the case of `CC(C)N1CCCC2(CCc3cc(C(=O)NO)ccc3C2)C1=O` (single isomer, unassigned) [Compound I-192] it was not above 100 nM. In the case of `O=C(NO)c1ccc2c(c1)CC[C@@]1(CCCN(C3CC3)C1=O)C2` (single isomer, unassigned) [Compound I-193] it was not above 100 nM; in that of `CCN1CCCC2(CCc3cc(C(=O)NO)ccc3C2)C1=O` (single isomer, unassigned) [Compound I-194], not above 100 nM; in that of `O=C(NO)c1ccc2c(c1)CCC1(CCCN(CC3COC3)C1=O)C2` (single isomer, unassigned) [Compound I-195], not above 100 nM.

For `O=C(NO)c1ccc2c(c1)CCC1(CCCN(CC3COC3)C1=O)C2` (single isomer, unassigned) [Compound I-196], the IC50 was not above 100 nM. Regarding `O=C(NO)c1ccc2c(c1)CC[C@@]1(CCCN(C3CCC3)C1=O)C2` (single isomer, unassigned) [Compound I-197], the IC50 is not above 100 nM. To `O=C(NO)c1ccc2c(c1)CC[C@]1(CCCN(C3CCC3)C1=O)C2` (single isomer, unassigned) [Compound I-198] belongs not above 100 nM; to `CN1C[C@@]2(CCc3cc(C(=O)NO)ccc3C2)CC1=O` (single isomer, unassigned) [Compound I-201], not above 100 nM. To `CN1CC2(CCc3cc(C(=O)NO)ccc3C2)CC1=O` (single isomer, unassigned) [Compound I-202] belongs not above 100 nM; to `O=C(NO)c1ccc2c(c1)CC[C@]1(CC(=O)N(c3ccccc3)C1)C2` (single isomer, unassigned) [Compound I-203], not above 100 nM. For `O=C(NO)c1ccc2c(c1)CCC1(CC(=O)N(c3ccccc3)C1)C2` (single isomer, unassigned) [Compound I-204], the IC50 is not above 100 nM. In the case of `O=C(NO)c1ccc2c(c1)CC[C@]1(CC(=O)N(CC3CCC3)C1)C2` (single isomer, unassigned) [Compound I-205], the IC50 was not above 100 nM. For `CCN1CC2(CCc3cc(C(=O)NO)ccc3C2)CC1=O` (single isomer, unassigned) [Compound I-206], the IC50 is not above 100 nM.

As for `CC(C)CN1CC2(CCc3cc(C(=O)NO)ccc3C2)CC1=O` (single isomer, unassigned) [Compound I-207], the IC50 is not above 100 nM. Take `CC(C)N1CC2(CCc3cc(C(=O)NO)ccc3C2)CC1=O` (single isomer, unassigned) [Compound I-208]: the IC50 is not above 100 nM. With `O=C(NO)c1ccc2c(c1)CCC1(CC(=O)N(C3CC3)C1)C2` (single isomer, unassigned) [Compound I-209], the IC50 was not above 100 nM. For the compound `O=C(NO)c1ccc2c(c1)CCC1(CC(=O)N(CC3CCC3)C1)C2` (single isomer, unassigned) [Compound I-210], the IC50 was not above 100 nM. For the compound `CCN1CC2(CCc3cc(C(=O)NO)ccc3C2)CC1=O` (single isomer, unassigned) [Compound I-211], the IC50 was not above 100 nM. For the compound `CC(C)CN1CC2(CCc3cc(C(=O)NO)ccc3C2)CC1=O` (single isomer, unassigned) [Compound I-212], the IC50 was not above 100 nM.

On to `CC(C)N1CC2(CCc3cc(C(=O)NO)ccc3C2)CC1=O` (single isomer, unassigned) [Compound I-213], for which the IC50 is not above 100 nM. Regarding `O=C(NO)c1ccc2c(c1)CCC1(CC(=O)N(C3CC3)C1)C2` (single isomer, unassigned) [Compound I-214], the IC50 was not above 100 nM. For `O=C(NO)c1ccc2c(c1)CCC1(CC(=O)N(CC3COC3)C1)C2` (single isomer, unassigned) [Compound I-215], the IC50 was not above 100 nM.

As for `O=C(NO)c1ccc2c(c1)CCC1(CC(=O)N(Cc3ccccc3)C1)C2` (single isomer, unassigned) [Compound I-216], the IC50 is not above 100 nM. For the compound `O=C(NO)c1ccc2c(c1)CCC1(CC(=O)N(CC3COC3)C1)C2` (single isomer, unassigned) [Compound I-217], the IC50 fell in the range of 100 to 500 nM. In the case of `O=C(NO)c1ccc2c(c1)CCC1(CC(=O)N(Cc3ccccc3)C1)C2` (single isomer, unassigned) [Compound I-218] it was not above 100 nM; in that of `COCCCN1CC2(CCc3cc(C(=O)NO)ccc3C2)CC1=O` (single isomer, unassigned) [Compound I-219], not above 100 nM; in that of `O=C(NO)c1ccc2c(c1)CCC1(CC(=O)N(CC(F)(F)F)C1)C2` (single isomer, unassigned) [Compound I-220], not above 100 nM.
